The values that follow come from patent publication US7919517B2, “Indazole derivatives” (Kyowa Hakko Kirin Co., Ltd., priority 2003, dated 2011).

Counter-ions that a name gives are not always drawn.

Holding throughout (format): cell-based
Assay [1] relates to human acute myeloid leukemia cell line MV-4-11. The assay is described as follows: Cytostatic activity on leukemia cell line MV-4-11 (WST-1). To be noted: 72 hours, MV-4-11 cells; for inhibition at 10 µM: Homo sapiens, MV4-11, 10 μmol/L, read-out: cytostatic rate MV-4-11 (%) (10 μmol/L). The procedure, abridged:
(§1)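 Cells in RPMI 1640/10% FBS were pre-cultured 4 h, then exposed to test compound at 10 μmol/L (0.1% DMSO) for 72 h at 37 °C. WST-1 read at 450 nm (690 nm reference); cytostatic rate = 100 − growth relative to DMSO control (100%) and medium blank (0%).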
On the technique in general: Formazan colour is commonly taken as a measure of viable cells.

Assay [2] relates to human acute myeloid leukemia cell line ML-1. In words: Cytostatic activity on leukemia cell line ML-1 (WST-1). Conditions: 72 hours, ML-1 cells; for inhibition at 10 µM: Homo sapiens, ML1, 10 μmol/L, read-out: cytostatic rate ML-1 (%) (10 μmol/L). A digest of the protocol: as §1
Assay [3] concerns human chronic myeloid leukemia cell line K562. The assay is described as follows: Cytostatic activity on leukemia cell line K562 (WST-1). Conditions: 72 hours, K562 cells; for inhibition at 10 µM: Homo sapiens, 10 μmol/L, read-out: cytostatic rate K562 (%) (10 μmol/L). A digest of the protocol: as §1
In assay [4] the test system is human colon cancer cell line Colo205. The assay is described as follows: Cytostatic activity on solid carcinoma cell line Colo205 (WST-1). To be noted: 72 hours, Colo205 cells; for inhibition at 10 µM: Homo sapiens, COLO 205, 10 μmol/L, read-out: cytostatic rate Colo205 (%) (10 μmol/L). The procedure, abridged: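 Colo205 cells in RPMI 1640 with 10% FBS were pre-cultured 24 h, then exposed to compound at 10 μmol/L final (0.1% DMSO) for 72 h at 37° C. WST-1 was added for 2 h and A450 (ref 690 nm) read. Cytostatic rate = 100 − relative growth, with DMSO control set at 100% and medium blank at 0%.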

In the case of `CC(C)NC(=O)CN1CCN(C(=O)c2ccc(/C=C/c3n[nH]c4ccccc34)cc2)CC1` [Compound 135, (E)-1-{4-[2-(1H-indazol-3-yl)vinyl]benzoyl}-4-[2-oxo-2-(isopropylamino)ethyl]piperazine dihydrochloride], the inhibition at 10 µM in assay [1] amounted to 99%; in assay [2], 79%; in assay [3] it was 93%; in assay [4] it was 87%.

In the case of `CC(CO)(CO)C(=O)N1CCN(C(=O)c2ccc(/C=C/c3n[nH]c4ccccc34)cc2)CC1` [Compound 136, (E)-4-(3-hydroxy-2-hydroxymethyl-2-methylpropionyl)-1-{4-[2-(1H-indazol-3-yl)vinyl]benzoyl}piperazine hydrochloride], the inhibition at 10 µM was 99% in assay [1], 82% in assay [2], 94% in assay [3] and 91% in assay [4].

As for `CC(=O)N(C)CC(=O)N1CCN(C(=O)c2ccc(/C=C/c3n[nH]c4ccccc34)cc2)CC1` [Compound 138, (E)-4-(N-acetyl-N-methylaminoacetyl)-1-{4-[2-(1H-indazol-3-yl)vinyl]benzoyl}piperazine], the inhibition at 10 µM in assay [1] turned out to be 99%; in assay [2], 88%; in assay [3], 94%; in assay [4] it was 91%.

As to `O=C(c1ccc(/C=C/c2n[nH]c3ccccc23)cc1)N1CCN(C(=O)[C@@H]2CCCN2)CC1` [Compound 140, (S)-(E)-4-[(pyrrolidin-2-yl)carbonyl]-1-{4-[2-(1H-indazol-3-yl)vinyl]benzoyl}piperazine], the inhibition at 10 µM in assay [1] amounted to 99%; in assay [2], 82%; in assay [3], 95%; in assay [4], 85%.

For the molecule `CN1CCC(C(=O)N2CCN(C(=O)c3ccc(/C=C/c4n[nH]c5ccccc45)cc3)CC2)CC1` [Compound 143, (E)-4-[(1-methylpiperidin-4-yl)carbonyl]-1-{4-[2-(1H-indazol-3-yl)vinyl]benzoyl}piperazine], the inhibition at 10 µM in assay [1] was 100%; in assay [2] it was 84%; in assay [3], 95%; in assay [4] it was 92%.

`CN1CCCC1C(=O)N1CCN(C(=O)c2ccc(/C=C/c3n[nH]c4ccccc34)cc2)CC1` (stereo not shown) [Compound 145, (E)-4-[(1-methylpyrrolidin-2-yl)carbonyl]-1-{4-[2-(1H-indazol-3-yl)vinyl]benzoyl}piperazine]: the inhibition at 10 µM in assay [1] turned out to be 99%; in assay [2], 85%; in assay [3], 94%; in assay [4], 92%.

Regarding `O=C(c1ccc(/C=C/c2n[nH]c3ccccc23)cc1)N1CCN(O)CC1` [Compound 147, (E)-4-Hydroxy-1-{4-[2-(1H-indazol-3-yl)vinyl]benzoyl}piperazine], the inhibition at 10 µM in assay [1] turned out to be 99%; in assay [2], 89%; in assay [3] it was 77%; in assay [4], 83%.

As for `CC(C)(C)OC(=O)NN1CCN(C(=O)c2ccc(/C=C/c3n[nH]c4ccccc34)cc2)CC1` [Compound 148, (E)-1-{4-[2-(1H-indazol-3-yl)vinyl]benzoyl}-4-(tert-butyloxycarbonylamino)piperazine], the inhibition at 10 µM in assay [1] turned out to be 98%; in assay [2], 81%; in assay [3], 91%; in assay [4] it was 83%.

Turning to `O=C(NN1CCN(C(=O)c2ccc(/C=C/c3n[nH]c4ccccc34)cc2)CC1)N1CCOCC1` [Compound 150, (E)-1-{4-[2-(1H-indazol-3-yl)vinyl]benzoyl}-4-(morpholinocarbonylamino)piperazine], the inhibition at 10 µM in assay [1] was 97%; in assay [2] it was 67%; in assay [3], 90%; in assay [4], 88%.

`O=C(c1ccc(/C=C/c2n[nH]c3ccccc23)cc1)N1CCN(c2c(N3CCCCC3)c(=O)c2=O)CC1` [Compound 155, (E)-3-piperidino-4-{[4-(2-(1H-indazol-3-yl)vinyl)benzoyl]piperazin-1-yl}-3-cyclobutene-1,2-dione]: the “cytostatic rate MV-4-11 (%) (10 μmol/L)” value in assay [1] turned out to be 97%. In addition, the “cytostatic rate ML-1 (%) (10 μmol/L)” value in assay [2] is listed as 79%. The “cytostatic rate K562 (%) (10 μmol/L)” value in assay [3] is 96%. In addition, the “cytostatic rate Colo205 (%) (10 μmol/L)” value in assay [4] is on record as 88%.

Take `O=C(c1ccc(/C=C/c2n[nH]c3ccccc23)cc1)N1CCN(c2c(N3CCOCC3)c(=O)c2=O)CC1` [Compound 156, (E)-3-morpholino-4-{[4-(2-(1H-indazol-3-yl)vinyl)benzoyl]piperazin-1-yl}-3-cyclobutene-1,2-dione]: the “cytostatic rate MV-4-11 (%) (10 μmol/L)” value in assay [1] is listed as 99%. Moreover, in assay [2], the “cytostatic rate ML-1 (%) (10 μmol/L)” value worked out at 85%. The “cytostatic rate K562 (%) (10 μmol/L)” value in assay [3] stood at 94%. In assay [4], the “cytostatic rate Colo205 (%) (10 μmol/L)” value was determined as 92%.

On to `N[C@@H]1CCN(C(=O)c2ccc(/C=C/c3n[nH]c4ccccc34)cc2)C1` [Compound 158, (R)-(E)-1-{4-[2-(1H-Indazol-3-yl)vinyl]benzoyl}-3-aminopyrrolidine], for which the inhibition at 10 µM in assay [1] amounted to 98%; in assay [2], 80%; in assay [3], 90%; in assay [4], 91%.

With `N[C@H]1CCN(C(=O)c2ccc(/C=C/c3n[nH]c4ccccc34)cc2)C1` [Compound 159, (S)-(E)-1-{4-[2-(1H-indazol-3-yl)vinyl]benzoyl}-3-aminopyrrolidine], the inhibition at 10 µM in assay [1] stood at 99%; in assay [2], 86%; in assay [3], 93%; in assay [4], 92%.
